# Measured values: patent publication US20260042731A1, “(2,4-DICHLOROPHENOXY)ACETIC ACID ANALOGS” (CORTEVA AGRISCIENCE LLC, priority 2022, published 2026)
# Read-outs that look alike come from different tables or passages of the source.
# Columns and labels:
# [1] = system: glyphosate resistant Conyza canadensis (L.) (ERICA), horseweed; assay: Postemergence herbicide evaluation, growth of Conyza canadensis (ERICA); type: in vivo; conditions: Erigeron canadensis, post-emergence, percent reduction in plant size vs untreated control, read-out: Ave. ERICA; for pest or weed control at 280 g/ha: 280 g ae/ha; for pest or weed control at 560 g/ha: 560 g ae/ha
# Corn (ZEAMX) = assay: Greenhouse post-emergence mixture trials, percent visual control; type: in vivo; conditions: ZEAMX, 21 DAA, no mixing partner; for % Control / plant injury at 560 g/ha: compound 560 g ae/ha
# [2] = system: Amaranthus rudis (AMATA), tall water hemp; assay: Postemergence herbicide evaluation, growth of Amaranthus rudis (AMATA); type: in vivo; conditions: Amaranthus tuberculatus, post-emergence, percent reduction in plant size vs untreated control, read-out: Ave. AMATA; for pest or weed control at 280 g/ha: 280 g ae/ha; for pest or weed control at 560 g/ha: 560 g ae/ha
# [3] = system: Chenopodium album (CHEAL), common lambsquarters; assay: Postemergence herbicide evaluation, growth of Chenopodium album (CHEAL); type: in vivo; conditions: Chenopodium album, post-emergence, percent reduction in plant size vs untreated control, read-out: Ave. CHEAL; for pest or weed control at 280 g/ha: 280 g ae/ha; for pest or weed control at 560 g/ha: 560 g ae/ha
# [4] = system: weeds ABUTH, AMATA, AMBEL, CHEAL, ERICA; assay: Postemergence herbicide evaluation, overall average % weed control across ABUTH, AMATA, AMBEL, CHEAL and ERICA; type: in vivo; conditions: post-emergence, average over five weeds, read-out: Overall Ave % Weed Control; for pest or weed control at 280 g/ha: 280 g ae/ha; for pest or weed control at 560 g/ha: 560 g ae/ha
# [5] = Volatility of compounds measured by thermogravimetric analysis (TGA); type: physicochemical
# Velvetleaf (ABUTH) = assay: Greenhouse post-emergence mixture trials, percent visual control; type: in vivo; conditions: ABUTH, 21 DAA; for pest or weed control at 560 g/ha / pest or weed control at 1120 g/ha: Abutilon theophrasti, post-emergence, 504 h; for pest or weed control at 560 g/ha: compound 560 g ae/ha; for pest or weed control at 1120 g/ha: compound 1120 g ae/ha, read-out: % Control
# [6] = system: Ambrosia artemisiifolia (AMBEL), common ragweed; assay: Postemergence herbicide evaluation, growth of Ambrosia artemisiifolia (AMBEL); type: in vivo; conditions: Ambrosia artemisiifolia, post-emergence, percent reduction in plant size vs untreated control, read-out: AVE. AMBEL; for pest or weed control at 280 g/ha: 280 g ae/ha; for pest or weed control at 560 g/ha: 560 g ae/ha
# [7] = system: Common Lambsquarters (CHEAL); assay: Greenhouse post-emergence mixture trials, percent visual control; type: in vivo; conditions: CHEAL, 21 DAA; for pest or weed control at 560 g/ha / pest or weed control at 1120 g/ha: Chenopodium album, post-emergence, 504 h, no mixing partner; for pest or weed control at 1120 g/ha: read-out: % Control
# [8] = system: Abutilon theophrasti (ABUTH), velvetleaf; assay: Postemergence herbicide evaluation, growth of Abutilon theophrasti (ABUTH); type: in vivo; conditions: Abutilon theophrasti, post-emergence, percent reduction in plant size vs untreated control, read-out: AVE. ABUTH; for pest or weed control at 280 g/ha: 280 g ae/ha; for pest or weed control at 560 g/ha: 560 g ae/ha
# [9] = no mixing partner, Trial Bridge 3
# [10] = Trial Bridge 1, mixing partner none
# [11] = Trial Bridge 2, no mixing partner
# [12] = Trial Bridge 1, compound 560 g ae/ha + Arylex 5 g ai or ae/ha
# [13] = Trial Bridge 1, compound 560 g ae/ha + Mesotrione 150 g ai or ae/ha
# [14] = Trial Bridge 1, compound 1120 g ae/ha + Arylex 5 g ai or ae/ha
# [15] = Trial Bridge 1, compound 1120 g ae/ha + Glufosinate 600 g ai or ae/ha
# [16] = Trial Bridge 1, compound 1120 g ae/ha + Mesotrione 150 g ai or ae/ha
# [17] = Trial Bridge 2, compound 560 g ae/ha + Saflufenacil 25 g ai or ae/ha
# [18] = Trial Bridge 2, compound 560 g ae/ha + Saflufenacil 75 g ai or ae/ha
# [19] = Trial Bridge 2, compound 560 g ae/ha + Trifludimoxazin 12.5 g ai or ae/ha
# [20] = Trial Bridge 2, compound 560 g ae/ha + Trifludimoxazin 50 g ai or ae/ha
# [21] = Trial Bridge 2, compound 1120 g ae/ha + Saflufenacil 25 g ai or ae/ha
# [22] = Trial Bridge 2, compound 1120 g ae/ha + Saflufenacil 75 g ai or ae/ha
# [23] = Trial Bridge 2, compound 1120 g ae/ha + Trifludimoxazin 12.5 g ai or ae/ha
# [24] = Trial Bridge 2, compound 1120 g ae/ha + Trifludimoxazin 50 g ai or ae/ha
structure (smiles),measurement,setting,value
O=C(COc1ccc(Cl)cc1Cl)Nc1cccnc1 [Compound D27],pest or weed control at 280 g/ha,"[1]; 168 h, 7 DAA",67.5%
same,pest or weed control at 560 g/ha,"[1]; 168 h, 7 DAA",85%
same,pest or weed control at 280 g/ha,"[1]; 336 h, 14 DAA",100%
same,pest or weed control at 560 g/ha,"[1]; 336 h, 14 DAA",100%
same,pest or weed control at 280 g/ha,"[1]; 504 h, 21 DAA",98.5%
same,pest or weed control at 560 g/ha,"[1]; 504 h, 21 DAA",99%
same,% Control,Corn (ZEAMX); Trial Bridge 1,5%
same,% Control,Corn (ZEAMX); Trial Bridge 3,5%
same,plant injury at 560 g/ha,"Corn (ZEAMX); Zea mays, post-emergence, 504 h, Trial Bridge 1",5%
same,plant injury at 560 g/ha,"Corn (ZEAMX); Zea mays, post-emergence, 504 h, Trial Bridge 3",5%
same,plant injury at 1120 g/ha,"Corn (ZEAMX); Zea mays, post-emergence, 504 h, compound 1120 g ae/ha, Trial Bridge 3",5%
same,pest or weed control at 280 g/ha,"[2]; 168 h, 7 DAA",80%
same,pest or weed control at 560 g/ha,"[2]; 168 h, 7 DAA",92%
same,pest or weed control at 280 g/ha,"[2]; 336 h, 14 DAA",92.5%
same,pest or weed control at 560 g/ha,"[2]; 336 h, 14 DAA",90%
same,pest or weed control at 280 g/ha,"[2]; 504 h, 21 DAA",85%
same,pest or weed control at 560 g/ha,"[2]; 504 h, 21 DAA",100%
same,pest or weed control at 280 g/ha,"[3]; 168 h, 7 DAA",82.5%
same,pest or weed control at 560 g/ha,"[3]; 168 h, 7 DAA",80%
same,pest or weed control at 280 g/ha,"[3]; 336 h, 14 DAA",85%
same,pest or weed control at 560 g/ha,"[3]; 336 h, 14 DAA",97.5%
same,pest or weed control at 280 g/ha,"[3]; 504 h, 21 DAA",94%
same,pest or weed control at 560 g/ha,"[3]; 504 h, 21 DAA",97.5%
same,pest or weed control at 280 g/ha,"[4]; 168 h, 7 DAA",78%
same,pest or weed control at 560 g/ha,"[4]; 168 h, 7 DAA",84.4%
same,pest or weed control at 280 g/ha,"[4]; 336 h, 14 DAA",87.3%
same,pest or weed control at 560 g/ha,"[4]; 336 h, 14 DAA",97%
same,pest or weed control at 280 g/ha,"[4]; 504 h, 21 DAA",94.9%
same,pest or weed control at 560 g/ha,"[4]; 504 h, 21 DAA",99.3%
same,"TGA Data (rate of weight loss, volatility)",[5],0.01 µg/min
same,% Control,"Velvetleaf (ABUTH); compound 560 g ae/ha + Sulfentrazone 347 g ai/ha, Trial Bridge 3",100%
same,% Control,"Velvetleaf (ABUTH); compound 1120 g ae/ha + Sulfentrazone 130 g ai/ha, Trial Bridge 3",100%
same,% Control,"Velvetleaf (ABUTH); compound 1120 g ae/ha + Sulfentrazone 347 g ai/ha, Trial Bridge 3",100%
same,pest or weed control at 560 g/ha,Velvetleaf (ABUTH); [9],100%
same,pest or weed control at 1120 g/ha,Velvetleaf (ABUTH); [9],99%
same,pest or weed control at 560 g/ha,Velvetleaf (ABUTH); [10],100%
same,pest or weed control at 1120 g/ha,Velvetleaf (ABUTH); [10],100%
same,pest or weed control at 560 g/ha,Velvetleaf (ABUTH); [11],100%
same,pest or weed control at 1120 g/ha,Velvetleaf (ABUTH); [11],100%
same,% Control,Velvetleaf (ABUTH); [12],100%
same,% Control,"Velvetleaf (ABUTH); Trial Bridge 1, compound 560 g ae/ha + Glufosinate 600 g ai or ae/ha",100%
same,% Control,"Velvetleaf (ABUTH); Trial Bridge 1, compound 560 g ae/ha + Glyphosate 1120 g ai or ae/ha",100%
same,% Control,Velvetleaf (ABUTH); [13],100%
same,% Control,"Velvetleaf (ABUTH); Trial Bridge 1, compound 560 g ae/ha + diclosulam 35 g ai or ae/ha",100%
same,% Control,Velvetleaf (ABUTH); [14],100%
same,% Control,Velvetleaf (ABUTH); [15],100%
same,% Control,"Velvetleaf (ABUTH); Trial Bridge 1, compound 1120 g ae/ha + Glyphosate 1120 g ai or ae/ha",100%
same,% Control,Velvetleaf (ABUTH); [16],100%
same,% Control,"Velvetleaf (ABUTH); Trial Bridge 1, compound 1120 g ae/ha + diclosulam 35 g ai or ae/ha",100%
same,% Control,Velvetleaf (ABUTH); [17],100%
same,% Control,Velvetleaf (ABUTH); [18],100%
same,% Control,Velvetleaf (ABUTH); [19],100%
same,% Control,Velvetleaf (ABUTH); [20],100%
same,% Control,Velvetleaf (ABUTH); [21],100%
same,% Control,Velvetleaf (ABUTH); [22],100%
same,% Control,Velvetleaf (ABUTH); [23],100%
same,% Control,Velvetleaf (ABUTH); [24],100%
same,pest or weed control at 280 g/ha,"[6]; 168 h, 7 DAA",85%
same,pest or weed control at 560 g/ha,"[6]; 168 h, 7 DAA",85%
same,pest or weed control at 280 g/ha,"[6]; 336 h, 14 DAA",77.5%
same,pest or weed control at 560 g/ha,"[6]; 336 h, 14 DAA",99%
same,pest or weed control at 280 g/ha,"[6]; 504 h, 21 DAA",100%
same,pest or weed control at 560 g/ha,"[6]; 504 h, 21 DAA",100%
same,% Control,[7]; [17],100%
same,% Control,[7]; [18],100%
same,% Control,[7]; [19],100%
same,% Control,[7]; [20],100%
same,% Control,[7]; [21],100%
same,% Control,[7]; [22],100%
same,% Control,[7]; [23],100%
same,% Control,[7]; [24],100%
same,% Control,"[7]; Trial Bridge 3, compound 560 g ae/ha + Sulfentrazone 130 g ai/ha",100%
same,% Control,"[7]; Trial Bridge 3, compound 560 g ae/ha + Sulfentrazone 347 g ai/ha",100%
same,% Control,"[7]; Trial Bridge 3, compound 1120 g ae/ha + Sulfentrazone 130 g ai/ha",100%
same,% Control,"[7]; Trial Bridge 3, compound 1120 g ae/ha + Sulfentrazone 347 g ai/ha",100%
same,pest or weed control at 560 g/ha,"[7]; Trial Bridge 2, compound 560 g ae/ha",95%
same,pest or weed control at 1120 g/ha,"[7]; Trial Bridge 2, compound 1120 g ae/ha",98%
same,pest or weed control at 560 g/ha,"[7]; Trial Bridge 3, compound 560 g ae/ha",95%
same,pest or weed control at 1120 g/ha,"[7]; Trial Bridge 3, compound 1120 g ae/ha",100%
same,pest or weed control at 560 g/ha,"[7]; Trial Bridge 1, compound 560 g ae/ha",98%
same,pest or weed control at 1120 g/ha,"[7]; Trial Bridge 1, compound 1120 g ae/ha",100%
same,% Control,[7]; [12],100%
same,% Control,[7]; [13],100%
same,% Control,[7]; [14],100%
same,% Control,[7]; [15],100%
same,% Control,[7]; [16],100%
same,pest or weed control at 280 g/ha,"[8]; 168 h, 7 DAA",75%
same,pest or weed control at 560 g/ha,"[8]; 168 h, 7 DAA",80%
same,pest or weed control at 280 g/ha,"[8]; 336 h, 14 DAA",81.5%
same,pest or weed control at 560 g/ha,"[8]; 336 h, 14 DAA",98.5%
same,pest or weed control at 280 g/ha,"[8]; 504 h, 21 DAA",97%
same,pest or weed control at 560 g/ha,"[8]; 504 h, 21 DAA",100%
